In US20120003156A1, “METHODS FOR TREATING NEOPLASIA BY INHIBITING LACTATE DEHYDROGENASE AND/OR NICOTINAMIDE PHOSPHORIBOSYLTRANSFERASE” (The Johns Hopkins University, priority 2008, published 2012):
Entries after “also recorded” stand apart in the source; their conditions may differ.

Legend:
LDH = LDH (Homo sapiens, UniProt P00338); test: LDH activity, decrease in absorbance at 340 nm of NADH; assay type: biochemical
Procedure: In other studies, pyruvate and NADH were used as the substrates to test the inhibition of LDH by FX11. […] To further document the selective binding of FX11 versus E to LDHA, affinity chromatography was performed with P493 cell lysate using FX11 or E immobilized on Sepharose beads. […] GAPDH is another pivotal glycolytic enzyme that converts NAD^+ to NADH. The question of whether FX11 could inhibit its NAD^+-dependent conversion of glyceraldehyde-3-phosphate to bis-phosphoglycerate was addressed.

LDHA = LDHA (Homo sapiens, UniProt P00338); test: Affinity chromatography of LDHA on Sepharose-immobilized FX11 or E; assay type: binding; conditions: P493 cell lysate; elution with 1 mM NADH
Procedure: FX11 and E molecules which contain carboxyl groups were coupled to immobilized diaminodipropylamine (DADPA) resins according to the manufacturer's instructions (Pierce). […] An equal amount of cell lysate was loaded onto these beads and eluted with 1 mM NADH after washing with 6 column volumes of high salt (1 M NaCl). LDHA activity was performed from the eluates to assess the binding affinity of the molecules with LDHA.

[1] = test system: P493 human lymphoma B cells; test: Cell population growth, trypan blue live cell count; assay type: cell-based
Procedure: (§1) P493 human lymphoma B cells were maintained in RPMI 1640 with 10% fetal bovine serum (FBS) and 1% penicillin-streptomycin. P198 human pancreatic cancer cells; RCC4, RCC4-VHL human renal carcinoma cells; MCF-7 and MDA-MB-453 breast cancer cells were maintained in high glucose (4.5 mg/ml) DMEM with 10% FBS and 1% penicillin-streptomycin. Non-hypoxic cells (20% O2) were maintained at 37° C. in a 5% CO2, 95% in an air incubator. Hypoxic cells (1% O2) were maintained in a controlled atmosphere chamber (PLAS-LABS, Lansing, Mich.) with a gas mixture containing 1% O2, 5% CO2, and 94% N2 at 37° C. for the indicated time. Bright live cells were counted daily in a hemacytometer using trypan blue dye to exclude dead cells. All cells were grown at a concentration of 10^5 cells/ml. All drugs treatment began at day 0.
siRNAs targeting human LDHA (ON-TARGETplus SMARTpool) were purchased from Dharmacon Research Inc. Targeting sequences for LDHA were a pool of the following four target sequences: sequence 1, […]; sequence 2, […]; sequence 3, […]; sequence 4, […]. Accordingly, one of skill in the art would recognize the siRNA sequences corresponding to these targets. For P493 human lymphoma B cells, transfection of siRNAs was performed using an Amaxa Nucleotransfection device according to the manufacturer's instructions. Briefly, 2 μg siLDHA ON-TARGETplus SMARTpool or ON-TARGETplus Non-targeting Pool (Dharmacon Research Inc.) were transfected into 2×10^6 cells at 0 hours. […]. The remaining cells were harvested for immunoblot analysis. For P198 human pancreatic cancer cells, transfection of siRNAs was performed using X-tremeGENE siRNA Transfection Reagent (Roche) according to the manufacturer's instructions.

P493 cells = test: Lactate production and glucose utilization, ABL700 Radiometer analyzer; assay type: cell-based, human
Procedure: Lactate production was measured by the ABL700 Radiometer analyzer according to the manufacturer's instructions. 10^5 cells were grown at 37° C. in a 5% CO2, 95% air incubator and treated with 9 μM FX11 or 0.5 nM FK866 for 24 hours.

c-Myc = test: Western blot of c-Myc; assay type: cell-based, human; conditions: 30 μM FX11, 24 hours
[2] = test system: P198 human pancreatic cancer cells; test: Cell population growth; assay type: cell-based; conditions: 1% O2 vs normoxia
Procedure: as §1
siRNAs targeting human LDHA (ON-TARGETplus SMARTpool) were purchased from Dharmacon Research Inc. Targeting sequences for LDHA were a pool of the following four target sequences: sequence 1, […]; sequence 2, […]; sequence 3, […]; sequence 4, […]. Accordingly, one of skill in the art would recognize the siRNA sequences corresponding to these targets. For P493 human lymphoma B cells, transfection of siRNAs was performed using an Amaxa Nucleotransfection device according to the manufacturer's instructions. […]

MCF-7 cells = test: Cell population growth; assay type: cell-based, human; conditions: dose-response
Procedure: as §1

MDA-MB-453 cells = test: Cell population growth; assay type: cell-based, human; conditions: dose-response
Procedure: as §1

RCC4 cells = test: Cell population growth; assay type: cell-based, human; conditions: dose-response
Procedure: as §1

RCC4-VHL cells = test: Cell population growth; assay type: cell-based, human; conditions: dose-response
Procedure: as §1

[3] = test system: Ramos Burkitt lymphoma cells; test: Cell population growth; assay type: cell-based, human
[4] = test system: P493 human lymphoma B cells; test: Human P493 B cell lymphoma xenograft; assay type: in vivo, SCID mice
Procedure: The animal studies were performed according to the protocols approved by the Animal Care and Use Committee at Johns Hopkins University. In order to generate tumorigenesis study in xenograft model, 2.0×10^7 P493 human lymphoma B cells or 5×10^6 human pancreatic cancer cells were injected subcutaneously into male SCID mice (NCI) or athymic Hsd: RH-Foxn1nu mice (Harlan), respectively, as previously described (Feldmann et al., 2007; Gao et al., 2009; Gao et al., 2007). When the tumor volume reached 200 mm^3, groups of 5 mice were injected with control 2% DMSO or 42 μg FX11 and/or 100 μg FK866. The tumor volumes were measured using a digital caliper after 4, 7 and 10 days of treatment. Tumor volumes were calculated using the following formula: [length (mm)×width (mm)×width (mm)×0.52]. The entire experiment was repeated seven times.

CCCc1c(O)c(O)c(C(=O)O)c2cc(Cc3ccccc3)c(C)cc12 [FX11, 2,3-dihydroxy-6-methyl-7-(phenylmethyl)-4-propylnaphthalene-1-carboxylic acid]
slope of decrease in absorbance at 340 nm (LDH; 6 μM FX11, −0.084 without FX11): −0.029
LDH activity (LDH; 6 μM, pyruvate and NADH as substrates): completely abrogated
concentration inhibiting LDH activity in the conversion of lactate to pyruvate (LDH; lactate to pyruvate direction): 34 µM
LDHA activity eluted from affinity beads relative to beads with immobilized E (LDHA): 4 fold
growth inhibition at 1% O2 compared with normoxia ([1]; 9 μM FX11): increased
proliferative rate of P493 cells with siRNA knock-down of LDHA ([1]; 9 μM FX11): not further slowed
inhibition of P493 cells in the absence of glucose ([1]; glucose-depleted medium): could not inhibit P493 cells further
inhibition of P493 cells, dose-response ([1]; normoxia (20% O2) and hypoxia (1% O2)): dose-dependent manner that was augmented in hypoxia
proliferation of P493 cells ([1]; single agent): diminished proliferation
cellular production of lactate (P493 cells; 9 μM FX11, 24 hours): significantly diminished
glucose utilization (P493 cells; FX11 treatment for 24 hours): reduction of glucose utilization
c-Myc levels (c-Myc): does not affect c-Myc levels
effect of hypoxia on inhibition of P198 cells by FX11 [2]: sensitized
cell population growth / sensitivity (MCF-7 cells): inhibited cell population growth; also recorded: more sensitive
cell population growth (MDA-MB-453 cells): inhibited cell population growth
cell population growth / sensitivity (RCC4 cells): inhibited cell population growth; also recorded: more sensitive
cell population growth (RCC4-VHL cells): inhibited cell population growth
cell population growth inhibition [3]: sensitive to FX11 inhibition in a manner that is diminished by glucose withdrawal; also recorded: dose-dependent manner
tumor growth of palpable P493 xenografts ([4]; daily IP, 42 μg FX11 or 0.8 mg doxycycline, vs vehicle 2% DMSO): remarkable inhibition of tumor growth
tumor growth of established P493 lymphoma xenografts ([4]; treatment from 200 mm^3, daily IP 42 μg FX11 and/or 100 μg FK866, ten days): cytostatic, but significant effect; also recorded: effectively inhibited
